System: soluble epoxide hydrolase (sEH)
Assay: Fluorescent assay for soluble epoxide hydrolase (CMNPC substrate), percent inhibition at the recited concentration
Assay type: biochemical
How it was run: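 Purified recombinant baculovirus-expressed sEH in 25 mM Bis/Tris HCl pH 7.0 with 0.1 mg/mL BSA; inhibitor serially diluted and preincubated with enzyme 5 min at 30 °C. Reaction started with 5 μM (final) substrate; fluorescence (ex 330/em 465 nm) read every 30 s for 10 min, and velocities give % inhibition.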

COCC(=O)N1CCC(NC(=O)NC23CC4CC(CC(C4)C2)C3)CC1 [Compound 7-76, 1-adamantyl-3-(1-(2-methoxyacetyl)piperidin-4-yl)urea]
% inh. (Inhibition Conc. 200 nM): 94%

O=C(NC1CCCCC1)NC1CCN(C(=O)c2ccccn2)CC1 [Compound 7-40, 1-cyclohexyl-3-(1-picolinoylpiperidin-4-yl)urea]
% inh. (Inhibition Conc. 50 nM): 82%

CC(=O)N1CCC(NC(=O)NC2CC3CCC2C3)CC1 (stereo not shown) [Compound 7-7, 1-(1-acetylpiperidin-4-yl)-3-(bicyclo[2.2.1]heptan-2-yl)urea]
% inh. (Inhibition Conc. 50 nM): 88%

O=C(Nc1ccc(C(F)(F)F)cc1)NC1CCN(c2ccccc2F)CC1 [Compound 2-13, 1-(1-(2-fluorophenyl)piperidin-4-yl)-3-(4-(trifluoromethyl)phenyl)urea]
% inh. (Inhibition Conc. 2000 nM): 18%

Reference: patent US20080227780A1, “SOLUBLE EPOXIDE HYDROLASE INHIBITORS” (Arete Therapeutics, Inc., priority 2007, published 2008)
